Source: PubChem BioAssay AID192 (DTP/NCI, 2004)
Values joined by “and” are separate entries in the source; they are usually repeats but may differ in a detail not shown here. Equal entries are not always repeated. Toxic doses and inconclusive results are not listed. The calls were made as follows: active = survival T/C of 150% or more; inactive = T/C below 125% in these data.

System: BDF1 mice, B16 melanoma ip, median survival T/C
Assay: NCI In Vivo Anticancer Drug Screen. Data for tumor model B16 Melanoma (intraperitoneal) in B6D2F1 (BDF1) mice
Conditions: endpoint: median survival time, higher = longer survival
Method in brief: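 Each result divides a survival or tumor-size measurement in the compound-treated group by the same measurement in the vehicle group.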

[1] = dose: 6.25 mg/kg/injection, schedule: Q01DX009 (ip), vehicle: saline
[2] = dose: 12.5 mg/kg/injection, schedule: Q01DX009 (ip), vehicle: saline
[3] = dose: 25.0 mg/kg/injection, schedule: Q01DX009 (ip), vehicle: saline
[4] = dose: 50.0 mg/kg/injection, schedule: Q01DX009 (ip), vehicle: saline
[5] = dose: 1.0 mg/kg/injection, schedule: Q01DX009 (ip), vehicle: saline
[6] = dose: 6.25 mg/kg/injection, schedule: Q01DX009 (ip), vehicle: other
[7] = dose: 12.5 mg/kg/injection, schedule: Q01DX009 (ip), vehicle: other
[8] = dose: 100.0 mg/kg/injection, schedule: Q01DX009 (ip), vehicle: saline
[9] = dose: 200.0 mg/kg/injection, schedule: Q01DX009 (ip), vehicle: saline
[10] = dose: 400.0 mg/kg/injection, schedule: Q01DX009 (ip), vehicle: saline
[11] = dose: 50.0 mg/kg/injection, schedule: Q01DX009 (ip), vehicle: Klucel (hydroxypropylcellulose) (HPC)
[12] = dose: 100.0 mg/kg/injection, schedule: Q01DX009 (ip), vehicle: Klucel (hydroxypropylcellulose) (HPC)
[13] = dose: 200.0 mg/kg/injection, schedule: Q01DX009 (ip), vehicle: Klucel (hydroxypropylcellulose) (HPC)
[14] = dose: 400.0 mg/kg/injection, schedule: Q01DX009 (ip), vehicle: Klucel (hydroxypropylcellulose) (HPC)
[15] = dose: 25.0 mg/kg/injection, schedule: Q01DX009 (ip), vehicle: saline with Tween-80
[16] = dose: 50.0 mg/kg/injection, schedule: Q01DX009 (ip), vehicle: saline with Tween-80
[17] = dose: 100.0 mg/kg/injection, schedule: Q01DX009 (ip), vehicle: saline with Tween-80
[18] = dose: 200.0 mg/kg/injection, schedule: Q01DX009 (ip), vehicle: saline with Tween-80
[19] = dose: 400.0 mg/kg/injection, schedule: Q01DX009 (ip), vehicle: saline with Tween-80

Measured: T/C

CNCC(C)(C)c1ccccc1
inactive: [1] 102 % of control | [2] 90 % of control | [3] 102 % of control | [4] 100 % of control

CC(=O)OC1C(=O)C(O)C(C)OC1O[C@@H]1C[C@@]2(C)[C@@H]3CC=C4[C@@H](C[C@H](O)C(=O)C4(C)C)[C@]3(C)C(=O)C[C@]2(C)[C@H]1[C@@](C)(O)C(=O)/C=C/C(C)(C)O (stereo partly drawn)
inactive: [5] 92 % of control | dose: 2.0 mg/kg/injection, schedule: Q01DX009 (ip), vehicle: saline 92 % of control

C=C(NC(C)=O)C(=O)CCC(N)=O
inactive: dose: 5.0 mg/kg/injection, schedule: Q01DX009 (ip), vehicle: saline 92 % of control | dose: 10.0 mg/kg/injection, schedule: Q01DX009 (ip), vehicle: saline 102 % of control | dose: 20.0 mg/kg/injection, schedule: Q01DX009 (ip), vehicle: saline 97 % of control

C=C1C(=O)OC2C1C(OC(=O)/C(C)=C/COC(C)=O)CC1(CO1)C1C(O)C=C(C)C21 (stereo not drawn)
inactive: [6] 103 % of control | [7] 100 % of control | dose: 25.0 mg/kg/injection, schedule: Q01DX009 (ip), vehicle: other 104 % of control

OCC1OC(Oc2ccc(O)cc2)C(O)C(O)C1O (stereo not drawn)
inactive: [4] 100 % of control | [8] 99 % of control | [9] 96 % of control | [10] 101 % of control

CN(C)C1=C(N2CC2)C(=O)C(N(C)C)=C(N2CC2)C1=O
inactive: dose: 0.12 mg/kg/injection, schedule: Q01DX009 (ip), vehicle: saline 106 % of control | dose: 0.25 mg/kg/injection, schedule: Q01DX009 (ip), vehicle: saline 112 % of control | dose: 0.5 mg/kg/injection, schedule: Q01DX009 (ip), vehicle: saline 93 % of control | [5] 112 % of control

COC(C/C=C\C=C\CC/C=C/CC(C)/C=C/C(=C\C(=O)O)CC(=O)O)/C(C)=C\C=C(/C)C(=O)O (stereo not drawn)
inactive: dose: 0.05 mg/kg/injection, schedule: Q01DX009 (ip), vehicle: saline 108 % of control | dose: 0.1 mg/kg/injection, schedule: Q01DX009 (ip), vehicle: saline 107 % of control | dose: 0.2 mg/kg/injection, schedule: Q01DX009 (ip), vehicle: saline 107 % of control | dose: 0.4 mg/kg/injection, schedule: Q01DX009 (ip), vehicle: saline 94 % of control

C/C=C(\Cl)C1=CC(=O)C23CC2C2(C)COC1(O)C3(O)O2 (stereo not drawn)
inactive: dose: 0.75 mg/kg/injection, schedule: Q01DX009 (ip), vehicle: saline with Tween-80 91 % of control

Cc1cc(=O)[nH]o1
inactive: [8] 106 % of control | [9] 105 % of control | [10] 99 % of control

Cc1ccc(S(=O)(=O)N2CCCC(Br)(Br)C(=O)c3ccccc32)cc1
inactive: dose: 25.0 mg/kg/injection, schedule: Q04DX003 (ip), vehicle: Klucel (hydroxypropylcellulose) (HPC) 95 % of control | dose: 50.0 mg/kg/injection, schedule: Q04DX003 (ip), vehicle: Klucel (hydroxypropylcellulose) (HPC) 96 % of control | dose: 100.0 mg/kg/injection, schedule: Q04DX003 (ip), vehicle: Klucel (hydroxypropylcellulose) (HPC) 93 % of control

[Cl][Pt+2][Cl].[NH-]c1cc(Cl)c(Cl)c(Cl)c1[NH-]
inactive: dose: 1.25 mg/kg/injection, schedule: Q01DX009 (ip), vehicle: saline with Tween-80 98 % of control | dose: 2.5 mg/kg/injection, schedule: Q01DX009 (ip), vehicle: saline with Tween-80 104 % of control | dose: 5.0 mg/kg/injection, schedule: Q01DX009 (ip), vehicle: saline with Tween-80 103 % of control | dose: 10.0 mg/kg/injection, schedule: Q01DX009 (ip), vehicle: saline with Tween-80 110 % of control | dose: 20.0 mg/kg/injection, schedule: Q01DX009 (ip), vehicle: saline with Tween-80 113 % of control | dose: 40.0 mg/kg/injection, schedule: Q01DX009 (ip), vehicle: saline with Tween-80 117 % of control

CC(=O)Oc1ccc(C)cc1
inactive: [11] 103 % of control | [12] 112 % of control | [13] 103 % of control

Cc1ccc(C)c(NC(=O)c2ccccc2Cl)c1
inactive: [12] 118 % of control | [13] 93 % of control | [14] 109 % of control

O=C(O)CCNCc1ccccc1
inactive: [2] 111 % of control | [4] 102 % of control | [8] 106 % of control | [9] 111 % of control

COC1C(O)=C2C(=O)OC(C)(O)/C=C/C=C\C=C/C=C/C(c3ccccc3)NC(=O)/C=C/C=C/C=C/C=C/C2(C)C1O (stereo not drawn)
inactive: dose: 0.39 mg/kg/injection, schedule: Q01DX009 (ip), vehicle: Klucel (hydroxypropylcellulose) (HPC) 103 % of control | dose: 0.78 mg/kg/injection, schedule: Q01DX009 (ip), vehicle: Klucel (hydroxypropylcellulose) (HPC) 104 % of control | dose: 1.56 mg/kg/injection, schedule: Q01DX009 (ip), vehicle: Klucel (hydroxypropylcellulose) (HPC) 96 % of control | dose: 1.56 mg/kg/injection, schedule: Q01DX009 (ip), vehicle: other 104 % of control | dose: 3.12 mg/kg/injection, schedule: Q01DX009 (ip), vehicle: Klucel (hydroxypropylcellulose) (HPC) 106 % of control | dose: 3.12 mg/kg/injection, schedule: Q01DX009 (ip), vehicle: other 103 % of control | [6] 101 % of control | [7] 97 % of control

CN(C)CCCN1c2ccccc2Sc2c(Cl)cc(Cl)cc21
inactive: dose: 3.12 mg/kg/injection, schedule: Q01DX009 (ip), vehicle: saline 97 % of control | [1] 105 % of control | [2] 102 % of control | [3] 87 % of control

Cc1c(Cl)cccc1NC(=O)Oc1ccc(Cl)cc1
inactive: [12] 98 % of control | [13] 101 % of control | [14] 96 % of control

CCCC(=O)NC1CCc2cc(OC)c(OC)c(OC)c2-c2ccc(OC)c(=O)cc21 (stereo not drawn)
inactive: dose: 0.15 mg/kg/injection, schedule: Q01DX009 (ip), vehicle: Klucel (hydroxypropylcellulose) (HPC) 115 % of control | dose: 0.31 mg/kg/injection, schedule: Q01DX009 (ip), vehicle: Klucel (hydroxypropylcellulose) (HPC) 112 % of control | dose: 0.63 mg/kg/injection, schedule: Q01DX009 (ip), vehicle: Klucel (hydroxypropylcellulose) (HPC) 119 % of control | dose: 2.5 mg/kg/injection, schedule: Q01DX009 (ip), vehicle: Klucel (hydroxypropylcellulose) (HPC) 123 % of control

CC(C)CNC(=O)Nc1ccccc1C(F)(F)F
inactive: [15] 97 % of control | [16] 96 % of control | [17] 86 % of control and 93 % of control | [18] 105 % of control | [19] 97 % of control

O=C(/C=C/C(=O)Oc1ccc(Cl)cc1)Oc1ccc(Cl)cc1
inactive: [12] 94 % of control | [13] 94 % of control

O=C1NC2C(NC(=O)N2Cl)N1Cl (stereo not drawn)
inactive: dose: 3.13 mg/kg/injection, schedule: Q01DX009 (ip), vehicle: saline with Tween-80 101 % of control | dose: 6.25 mg/kg/injection, schedule: Q01DX009 (ip), vehicle: saline with Tween-80 98 % of control | dose: 12.5 mg/kg/injection, schedule: Q01DX009 (ip), vehicle: saline with Tween-80 90 % of control and 98 % of control | [2] 101 % of control | [15] 86 % of control | [3] 94 % of control | dose: 25.0 mg/kg/injection, schedule: Q04DX003 (ip), vehicle: saline with Tween-80 105 % of control

O=C(CCl)Oc1cccc([N+](=O)[O-])c1
inactive: [15] 107 % of control | [16] 102 % of control | [17] 101 % of control

CCOC(=O)CC(C)(N)NC(N)=O (stereo not drawn)
inactive: [17] 92 % of control | [18] 95 % of control | [19] 90 % of control

CCC(c1ccc(OC(=O)Cc2ccc(N(CCCl)CCCl)cc2)cc1)C(CC)c1ccc(OC(=O)Cc2ccc(N(CCCl)CCCl)cc2)cc1 (stereo not drawn)
inactive: dose: 6.25 mg/kg/injection, schedule: Q01DX009 (ip), vehicle: Klucel (hydroxypropylcellulose) (HPC) 106 % of control | dose: 12.5 mg/kg/injection, schedule: Q01DX009 (ip), vehicle: Klucel (hydroxypropylcellulose) (HPC) 110 % of control | dose: 25.0 mg/kg/injection, schedule: Q01DX009 (ip), vehicle: Klucel (hydroxypropylcellulose) (HPC) 96 % of control | [11] 88 % of control | dose: 64.0 mg/kg/injection, schedule: Q02DX009 (ip), vehicle: saline with Tween-80 95 % of control and 98 % of control | dose: 128.0 mg/kg/injection, schedule: Q02DX009 (ip), vehicle: saline with Tween-80 91 % of control | dose: 256.0 mg/kg/injection, schedule: Q02DX009 (ip), vehicle: saline with Tween-80 92 % of control
